Experimental data published in patent US9248217B2, “Nanoparticle coating of surfaces” (Nanocopocia, LLC, priority 2006, dated 2016).

Key:
[1] = SEM imaging of drug particles on hydrogel; format: physicochemical; conditions: SEM at 20,000x magnification
Protocol: For initial feasibility spray examples, griseofulvin (0.09023 g), a poorly water soluble antifungal agent, was dissolved in a mixture of ethanol (9 ml) and acetone (6 ml). A hydrogel sample, approximately 5 mm in largest diameter, removed from a borate buffer solution and placed on a metallic spray platform beneath the ElectroNanospray device's dual capillary spray head. The solution was sprayed in the cone jet mode at 4.17 kV at 5 μl/min and a distance of 15.6 mm from the hydrogel. Spray time was 20 minutes. The surface pattern seen in the SEM image shown in FIGS. 39A and 39B show a uniform, closely packed surface of approximately 200 nm particles at 20,000× magnification.

[2] = HPLC retention time of eluted peptide before and after ElectroNanospray (structural integrity); format: physicochemical; conditions: sprayed in aqueous solution onto stents and stainless steel plates
Protocol: General HPLC methods to quantify dexamethasone (DXM) and three peptides (luteinizing hormone releasing hormone (human; LHRH), angiotensin I, and insulin chain B) were developed using an HP 1090 system equipped with a narrowbore column (Zorbax SB C-18, 2.1 mm i.d.×150 mm, 3.5 μm) and UV detector. Data integration and processing were performed with Agilent ChemStation software (Rev. A.08.03). Peak areas were obtained by subtracting the baseline (from a “blank” injection of the sample matrix) from the experimental chromatogram. DXM was analyzed with the following method: 20/80 to 100/0 to 20/80 acetonitrile/water in 3 min and 3.01 min at 0.6 mL/min, end run at 6 min; 65° C.; 10 μL injection volume. DXM, which was detected at 243 nm, eluted at 2.27 min. The calibration curve for DXM (obtained from Alexis Biochemicals) generated with seven standard concentrations ranging from 0.5 to 30 μg/ml in acetonitrile was adequately linear (R^2=0.9999) and the limit of quantification (LOQ) was 0.5 μg/ml. The peptides (all obtained from Sigma-Aldrich) were analyzed with the following method: 20/80 to 50/50 to 20/80 acetonitrile/water buffered with 0.1% (v/v) perchloric acid in 5 min and 5.01 min at 0.4 mL/min, end run at 9 min; 65° C.; 10 μL injection volume; 210 nm detection wavelength. The retention of the peptides was measured before and after the ElectroNanospray process described earlier. LHRH eluted at 2.61 min, angiotensin I eluted at 3.54 min, and insulin B chain eluted at 4.71 min. Calibration curves for the peptides were obtained using five standard concentrations ranging from 1.25 to 50 μg/ml in a solution of 10 mM perchloric acid in water. The LOD for LHRH, angiotensin I and insulin chain B were 0.19, 0.25 and 0.34 μg/ml, respectively. System suitability and injection reproducibility tests were satisfactory.
We identified and sourced three readily available peptides of varying chain length, LHRH, angiotensin I, and insulin B chain. These were sprayed in aqueous solution onto both stents and stainless steel plates. […]

Compound	particle size on hydrogel surface [1]	HPLC retention time after spraying compared to before spraying [2]
COC1=CC(=O)C[C@@H](C)[C@]12Oc1c(Cl)c(OC)cc(OC)c1C2=O [griseofulvin]	approximately 200 nm	
Luteinizing hormone releasing hormone [LHRH]		unchanged
angiotensin I (DRVYIHPFHL; Angiotensin-1; UniProt P01019 25-34, looked up) [model peptide obtained from Sigma-Aldrich]		unchanged
insulin B chain		unchanged
